Data published in patent publication US7902252B2, “Inhibitors of D-amino acid oxidase” (Sepracor, Inc., priority 2007, dated 2011).

target: Human DAAO (Homo sapiens, UniProt P14920); assay: D-Amino Acid Oxidase enzyme assay (D-serine, horseradish peroxidase/Amplex Red coupled fluorescence); format: biochemical; conditions: D-serine 5 mM, pH 7.4
Experimental: DAAO enzyme activity was measured using the substrate D-serine at its Michaelis-Menton Km of 5 mM. The rate of oxidation is measured as a rate of production of hydrogen peroxide, which was detected using the enzyme horseradish peroxidase (Sigma cat. No. P-8375). This coupled reaction uses the enzyme substrate Amplex Red (Molecular Probes), which is converted to the fluorescent reaction product, resorufin (excitation 530-560 nm; emission ˜590 nm). Although DAAO has a higher pH optimum, all reagents were prepared in 50 mM sodium phosphate buffer at pH 7.4 and inhibition curves were generated at this pH.
The final concentrations of components in 200 μl total volume per well (black clear-bottom 96-well plate, Costar) were:
(a) Horseradish peroxidase: 4 Units per mL
(d) Amplex Red reagent: 50 uM
The reactions were initiated by addition of DAAO enzyme and the fluorescence was monitored. H2O2 was added at 16 uM final concentration to a control well on each plate to test for compound interference with a coupled enzyme. Inhibition curves were generated in the presence of varying concentrations of the inhibitor and IC50 values were calculated for each inhibitor.

Chain of Human DAAO (P14920 whole entry): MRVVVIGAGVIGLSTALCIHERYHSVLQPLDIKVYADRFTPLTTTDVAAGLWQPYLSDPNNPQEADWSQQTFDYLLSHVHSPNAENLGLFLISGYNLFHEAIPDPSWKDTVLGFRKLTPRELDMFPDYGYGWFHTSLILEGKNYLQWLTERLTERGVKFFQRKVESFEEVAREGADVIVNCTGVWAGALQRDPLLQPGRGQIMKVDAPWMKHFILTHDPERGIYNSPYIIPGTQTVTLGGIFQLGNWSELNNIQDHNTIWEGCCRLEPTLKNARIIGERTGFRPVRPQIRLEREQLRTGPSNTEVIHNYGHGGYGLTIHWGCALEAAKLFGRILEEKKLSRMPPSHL

Structure (SMILES)	IC50 [µM]
CC1CCc2[nH]c(C(=O)O)cc21 (racemic) [Compound 4, 4-methyl-1,4,5,6-tetrahydrocyclopenta[b]pyrrole-2-carboxylic acid]	≤ 1
CCCC1CCc2[nH]c(C(=O)O)cc21 (racemic) [Compound 7, 4-propyl-1,4,5,6-tetrahydrocyclopenta[b]pyrrole-2-carboxylic acid]	≤ 0.1
O=C(O)c1cc2c([nH]1)CCC2Cc1ccc(Cl)cc1 (racemic) [Compound 14, 4-(4-chlorobenzyl)-1,4,5,6-tetrahydrocyclopenta[b]pyrrole-2-carboxylic acid]	≤ 0.1
O=C(O)c1cc2c([nH]1)CCC2Cc1ccc(F)c(F)c1 (racemic) [Compound 42, 4-(3,4-difluorobenzyl)-1,4,5,6-tetrahydrocyclopenta[b]pyrrole-2-carboxylic acid]	≤ 0.1
O=C(O)c1cc2c([nH]1)CCC2Cc1ccc(F)cc1F (racemic) [Compound 45, 4-(2,4-difluorobenzyl)-1,4,5,6-tetrahydrocyclopenta[b]pyrrole-2-carboxylic acid]	≤ 0.1
O=C(O)c1cc2c([nH]1)CCC2Cc1ccc(F)c(Cl)c1 (racemic) [Compound 48, 4-(3-chloro-4-fluorobenzyl)-1,4,5,6-tetrahydrocyclopenta[b]pyrrole-2-carboxylic acid]	≤ 0.1
Cc1cc(F)ccc1CC1CCc2[nH]c(C(=O)O)cc21 (racemic) [Compound 51, 4-(4-fluoro-2-methylbenzyl)-1,4,5,6-tetrahydrocyclopenta[b]pyrrole-2-carboxylic acid]	≤ 0.1
O=C(O)c1cc2c([nH]1)CCC2Cc1ccc(Cl)c(Cl)c1 (racemic) [Compound 57, 4-(3,4-dichlorobenzyl)-1,4,5,6-tetrahydrocyclopenta[b]pyrrole-2-carboxylic acid]	≤ 0.1
O=C(O)c1cc2c([nH]1)CCC2Cc1ccc(Br)cc1 (racemic) [Compound 60, 4-(4-bromobenzyl)-1,4,5,6-tetrahydrocyclopenta[b]pyrrole-2-carboxylic acid]	≤ 0.1
COc1cccc(CC2CCc3[nH]c(C(=O)O)cc32)c1 (racemic) [Compound 66, 4-(3-methoxybenzyl)-1,4,5,6-tetrahydrocyclopenta[b]pyrrole-2-carboxylic acid]	≤ 0.1
O=C(O)c1cc2c([nH]1)CCC2Cc1cccc(-c2ccco2)c1 (racemic) [Compound 87, 4-(3-(furan-2-yl)benzyl)-1,4,5,6-tetrahydrocyclopenta[b]pyrrole-2-carboxylic acid]	≤ 100
O=C(O)c1cc2c([nH]1)CCC2Cc1cccc(-c2ccc[nH]2)c1 (racemic) [Compound 91, 4-(3-(1H-pyrrol-2-yl)benzyl)-1,4,5,6-tetrahydrocyclopenta[b]pyrrole-2-carboxylic acid]	≤ 0.1
O=C(O)c1cc2c([nH]1)CCC2c1cc(F)cc(F)c1 (racemic) [Compound 98, 4-(3,5-difluorophenyl)-1,4,5,6-tetrahydrocyclopenta[b]pyrrole-2-carboxylic acid]	≤ 1
C[C@H]1[C@H]2Cc3[nH]c(C(=O)O)cc3[C@@H]12 (racemic) [Compound 141, ±(1S,1aS,5aR)-1-methyl-1a,4,5,5a-tetrahydro-1H-4-aza-cyclopropa[α]pentalene-3-carboxylic acid]	≤ 0.1
CC1CCc2[nH]c(C(=O)O)cc21 (single isomer, unassigned) [Compound 5, 4-methyl-1,4,5,6-tetrahydrocyclopenta[b]pyrrole-2-carboxylic acid]	≤ 1
CC1CCc2[nH]c(C(=O)O)cc21 (single isomer, unassigned) [Compound 6, 4-methyl-1,4,5,6-tetrahydrocyclopenta[b]pyrrole-2-carboxylic acid]	≤ 100
CCCC1CCc2[nH]c(C(=O)O)cc21 (single isomer, unassigned) [Compound 9, 4-propyl-1,4,5,6-tetrahydrocyclopenta[b]pyrrole-2-carboxylic acid]	≤ 100
O=C(O)c1cc2c([nH]1)CCC2Cc1ccc(Cl)cc1 (single isomer, unassigned) [Compound 15, 4-(4-chlorobenzyl)-1,4,5,6-tetrahydrocyclopenta[b]pyrrole-2-carboxylic acid]	≤ 0.1
O=C(O)c1cc2c([nH]1)CCC2Cc1ccc(Cl)cc1 (single isomer, unassigned) [Compound 16, 4-(4-chlorobenzyl)-1,4,5,6-tetrahydrocyclopenta[b]pyrrole-2-carboxylic acid]	≤ 100

Now from value to compound:

IC50 [µM]	Structure (SMILES)
≤ 100	O=C(O)c1cc2c([nH]1)C(=Cc1ccccc1)CC2 (mixture of isomers) [Compound 25, (E/Z)-6-benzylidene-1,4,5,6-tetrahydrocyclopenta[b]pyrrole-2-carboxylic acid]
≤ 1	O=C(O)c1cc2c([nH]1)CCC2CCc1ccccc1 (racemic) [Compound 18, 4-phenethyl-1,4,5,6-tetrahydrocyclopenta[b]pyrrole-2-carboxylic acid]
≤ 0.1	O=C(O)c1cc2c([nH]1)CCC2Cc1cccc(Br)c1 (racemic) [Compound 63, 4-(3-bromobenzyl)-1,4,5,6-tetrahydrocyclopenta[b]pyrrole-2-carboxylic acid]
≤ 0.1	O=C(O)c1cc2c([nH]1)CCC2c1cccc(F)c1 (racemic) [Compound 94, 4-(3-fluorophenyl)-1,4,5,6-tetrahydrocyclopenta[b]pyrrole-2-carboxylic acid]
≤ 1	O=C(O)c1cc2c([nH]1)C(c1ccc(-c3ccccc3)cc1)CC2 (racemic) [Compound 118, 6-(biphenyl-4-yl)-1,4,5,6-tetrahydrocyclopenta[b]pyrrole-2-carboxylic acid]
≤ 0.1	O=C(O)c1cc2c([nH]1)C(Cc1cccc(Cl)c1)CC2 (racemic) [Compound 121, 6-(3-chlorobenzyl)-1,4,5,6-tetrahydrocyclopenta[b]pyrrole-2-carboxylic acid]
≤ 0.1	O=C(O)c1cc2c([nH]1)C(Cc1cccc(Br)c1)CC2 (racemic) [Compound 125, 6-(3-bromobenzyl)-1,4,5,6-tetrahydrocyclopenta[b]pyrrole-2-carboxylic acid]
≤ 0.1	COc1cccc(CC2CCc3cc(C(=O)O)[nH]c32)c1 (racemic) [Compound 129, 6-(3-methoxybenzyl)-1,4,5,6-tetrahydrocyclopenta[b]pyrrole-2-carboxylic acid]
≤ 1	O=C(O)c1cc2c([nH]1)C(CCCc1ccccc1)CC2 (racemic) [Compound 134, 6-(3-phenylpropyl)-1,4,5,6-tetrahydrocyclopenta[b]pyrrole-2-carboxylic acid]
≤ 0.1	O=C(O)c1cc2c([nH]1)C[C@@H]1[C@H](CCc3ccccc3)[C@H]21 (racemic) [Compound 143, ±(1S,1aS,5aR)-1-phenethyl-1a,4,5,5a-tetrahydro-1H-4-aza-cyclopropa[α]pentalene-3-carboxylic acid]
≤ 100	O=C(O)c1cc2c([nH]1)C[C@@H]1[C@@H](c3ccccc3)[C@H]21 (racemic) [Compound 144, ±(1R,1aR,5aR)-1-phenyl-1a,4,5,5a-tetrahydro-1H-4-aza-cyclopropa[α]pentalene-3-carboxylic acid]
≤ 1	O=C(O)c1cc2c([nH]1)CCC2CCc1ccccc1 (single isomer, unassigned) [Compound 19, 4-phenethyl-1,4,5,6-tetrahydrocyclopenta[b]pyrrole-2-carboxylic acid]
